Measured values reported in patent publication US8809344B2, “Compounds, compositions, and methods for control of hepatitis C viral infections” (priority 2008, dated 2014).

Tests used:
[1] = Neutral red dye uptake cytotoxicity assay; format: cell-based; conditions: human, Experiment 3
Protocol: Inhibition of HCV replication by compound AP0080978 (enantiomer 2 from Example 1) was also assayed by exposing cells harboring either HCV genotype 1a, HCV genotype 1b, HCV genotype 2a replicons. […] Final DMSO percentage was 1% in a total volume of 1 ml. After a 72 hour treatment period, total RNA was extracted, quantified via RiboGreen™ assay (Invitrogen-Molecular Probes, Eugene, Oreg., USA), and equivalent amounts of RNA were subjected to quantitative RT-PCR to quantify HCV RNA levels. Activity against genotype 1b was re-confirmed using Clone II cells (U.S. Pat. No. 7,049,428) that contain a stable subgenomic replicon (Con1 strain) with a Arg 1164 Gly adaptive mutation that is distinct from the Ser 1179 Ile adaptive mutation present in Clone VI cells. In this assay, cells were seeded into 96-well plates and treated in quadruplicate with varying concentration of compounds for 72 hours. For each replicate culture, HCV RNA levels were measured by blot hybridization and normalized to β-actin RNA levels. Cytotoxicity was measured using an established neutral red dye uptake assay (Korba and Gerin (1992) Antiviral Res 19:55; Okuse et al (2005) Antiviral Res 65: 23). […] Activity and toxicity against genotype 2a was evaluated in Huh7 cells harboring a stable hRluc-containing subgenomic genotype 2a replicon containing sequence from both J6 and JFH1 strains. […]

[2] = test system: HCV genotype 1b subgenomic replicon (Con1 strain); test: microbe, parasite or virus in culture; format: cell-based; conditions: Hepatitis C virus; 24 hours post-treatment; Renilla luciferase; Huh7.5 cells
From the text: The replicon used in these studies was a transient genotype 1b subgenomic replicon generated from the Con1 strain. In this replicon, the HCV internal ribosome entry site (IRES) within the 5′ non-translated region (NTR) drives expression of the first 32 amino acids of the core protein fused to humanized Renilla luciferase (hRluc). The encephalomycarditis IRES lies 3′ to the hRluc open reading frame (ORF) and drives expression of non-structural (NS) proteins NS3 through NS5B. Huh7.5 cells (U.S. patent application Ser. No. 10/534,571) harboring this replicon were seeded into 96-well plates at 20,000 cells per well in medium containing 10% FBS, 1× penicillin/streptomycin, 1× non-essential amino acids, and 100 ng/ml Fungizone. After a four hour attachment period, compound was added to wells using a five point 3-fold serial dilution series with four replicate treatments per dose. Final DMSO percentage was 1% in a total volume of 200 ul. Compound-mediated HCV inhibition and toxicity were assayed 24 hours post-treatment using Renilla luciferase readout and an ATP viability assay (CellTiter-Glo, Promega, Madison, Wis., USA), respectively.

[3] = ATP viability assay (CellTiter-Glo) in replicon-harboring Huh7.5 cells; format: cell-based, human; conditions: human; 24 hours post-treatment; Huh7.5 cells harboring transient genotype 1b replicon
Protocol: Inhibition of HCV replication by AP0089652, AP0080978 (enantiomer 2 from Example 1) and AP0080977 (enantiomer 1 from Example 1) were assayed by exposing cells harboring an HCV genotype 1b replicons to the compounds and quantitating HCV replicon levels following exposure. The replicon used in these studies was a transient genotype 1b subgenomic replicon generated from the Con1 strain. In this replicon, the HCV internal ribosome entry site (IRES) within the 5′ non-translated region (NTR) drives expression of the first 32 amino acids of the core protein fused to humanized Renilla luciferase (hRluc). The encephalomycarditis IRES lies 3′ to the hRluc open reading frame (ORF) and drives expression of non-structural (NS) proteins NS3 through NS5B. Huh7.5 cells (U.S. patent application Ser. No. 10/534,571) harboring this replicon were seeded into 96-well plates at 20,000 cells per well in medium containing 10% FBS, 1× penicillin/streptomycin, 1× non-essential amino acids, and 100 ng/ml Fungizone. After a four hour attachment period, compound was added to wells using a five point 3-fold serial dilution series with four replicate treatments per dose. […] Compound-mediated HCV inhibition and toxicity were assayed 24 hours post-treatment using Renilla luciferase readout and an ATP viability assay (CellTiter-Glo, Promega, Madison, Wis., USA), respectively. […]

[4] = test system: genotype 2a replicon with the L1809F mutation; test: Genotype 2a replicon with L1809F mutation; format: cell-based; conditions: Hepatitis C virus
Protocol: Since leucine at amino acid 1809 in the genotype 1b replicon was mutated from a phenylalanine residue to a leucine or a valine residue to confer resistance to 80978, and the residue at the corresponding position in the parental genotype 2a replicon is leucine, mutagenesis was carried out to determine whether a phenylalanine at this position in the genotype 2a replicon was sufficient to confer sensitivity to 80978.

[5] = test system: all other chimeric replicons and the genotype 2a parental replicon; test: Other chimeric replicons and genotype 2a parental replicon in Huh7.5 cells; format: cell-based; conditions: Hepatitis C virus
From the text: That NS4B is the target of 80978 was confirmed by a complementary approach. The differential response to 80978 by HCV genotype 1b and 2a replicons allowed the use of chimeric replicons to narrow down the region of the HCV genotype 1b NS4B coding region that confers sensitivity to 80978. The nucleotide sequence of the wild type HCV genotype 2a NS4B is provided as SEQ ID NO: 7 and the wild type HCV genotype 2a NS4B protein sequence is provided as SEQ ID NO:8. Using a plasmid containing an 80978-resistant stable HCV genotype 2a subgenomic reporter replicon cDNA, six replacement, or chimeric constructs were made, where the regions encoding the following amino acids of NS4B were replaced with the regions encoding the corresponding amino acids of NS4B from HCV genotype 1b: (i) 7-254, (ii) 7-52, (iii) 53-254, (iv) 219-254, (v) 7-52 and 219-254, and (vi) 53 to 218. The full-length NS4B protein is 261 amino acids in length and is provided as SEQ ID NO:2. Thus, if any of these segments of NS4B from genotype 1b are sufficient to confer 80978-sensitivity to a genotype 2a HCV replicon, it will render the chimeric genotype 1b/genotype 2a replicon sensitive to the compound.
Response to 80978 was measured initially in unselected cells. […] All of the chimeric and wild type control constructs were responsive to Cyclosporin A (CsA).

## O=C(NCc1cccs1)c1nn2c(c1Cl)N[C@H](c1ccco1)C[C@@H]2C(F)(F)F (single isomer, unassigned) [Compound 80978]
[1]
  CC50 at 72 h: > 20 µM
[2]
  EC50: 1.8 µM
[3]
  CC50 at 24 h: > 100 µM
[4]
  EC50: > 25 µM
[5]
  EC50: > 20 µM
